The values that follow come from patent US11292796B2 (SIGNAL PHARMACEUTICALS, LLC, priority 2008, dated 2022).

For this assay, the target named is T1, mTOR (Homo sapiens, UniProt P42345).
T1 construct: purchased Invitrogen PR8683A
Briefly: mTOR HTR-FRET assay. Type of assay: biochemical. Particulars: read-out: Act. Level (IC50 in mTor HTR-FRET assay). As for the experimental part: The following is an example of an assay that can be used to determine the mTOR inhibitory activity of a test compound. Heteroaryl Compounds were dissolved in DMSO and prepared as 10 mM stocks and diluted appropriately for the experiments. Reagents were prepared as follows:
“Simple TOR buffer” (used to dilute high glycerol TOR fraction): 10 mM Tris pH 7.4, 100 mM NaCl, 0.1% Tween-20, 1 mM DTT. Invitrogen mTOR (cat #PR8683A) was diluted in this buffer to an assay concentration of 0.200 μg/mL.
To 20 μL of the Simple mTor buffer is added 0.5 μL of test compound in DMSO. To initiate the reaction 5 μL of ATP/Substrate solution was added to 20 μL of the Simple TOR buffer solution (control) and to the compound solution prepared above.

T1 sequence (P42345 1360-2549 limits assumed): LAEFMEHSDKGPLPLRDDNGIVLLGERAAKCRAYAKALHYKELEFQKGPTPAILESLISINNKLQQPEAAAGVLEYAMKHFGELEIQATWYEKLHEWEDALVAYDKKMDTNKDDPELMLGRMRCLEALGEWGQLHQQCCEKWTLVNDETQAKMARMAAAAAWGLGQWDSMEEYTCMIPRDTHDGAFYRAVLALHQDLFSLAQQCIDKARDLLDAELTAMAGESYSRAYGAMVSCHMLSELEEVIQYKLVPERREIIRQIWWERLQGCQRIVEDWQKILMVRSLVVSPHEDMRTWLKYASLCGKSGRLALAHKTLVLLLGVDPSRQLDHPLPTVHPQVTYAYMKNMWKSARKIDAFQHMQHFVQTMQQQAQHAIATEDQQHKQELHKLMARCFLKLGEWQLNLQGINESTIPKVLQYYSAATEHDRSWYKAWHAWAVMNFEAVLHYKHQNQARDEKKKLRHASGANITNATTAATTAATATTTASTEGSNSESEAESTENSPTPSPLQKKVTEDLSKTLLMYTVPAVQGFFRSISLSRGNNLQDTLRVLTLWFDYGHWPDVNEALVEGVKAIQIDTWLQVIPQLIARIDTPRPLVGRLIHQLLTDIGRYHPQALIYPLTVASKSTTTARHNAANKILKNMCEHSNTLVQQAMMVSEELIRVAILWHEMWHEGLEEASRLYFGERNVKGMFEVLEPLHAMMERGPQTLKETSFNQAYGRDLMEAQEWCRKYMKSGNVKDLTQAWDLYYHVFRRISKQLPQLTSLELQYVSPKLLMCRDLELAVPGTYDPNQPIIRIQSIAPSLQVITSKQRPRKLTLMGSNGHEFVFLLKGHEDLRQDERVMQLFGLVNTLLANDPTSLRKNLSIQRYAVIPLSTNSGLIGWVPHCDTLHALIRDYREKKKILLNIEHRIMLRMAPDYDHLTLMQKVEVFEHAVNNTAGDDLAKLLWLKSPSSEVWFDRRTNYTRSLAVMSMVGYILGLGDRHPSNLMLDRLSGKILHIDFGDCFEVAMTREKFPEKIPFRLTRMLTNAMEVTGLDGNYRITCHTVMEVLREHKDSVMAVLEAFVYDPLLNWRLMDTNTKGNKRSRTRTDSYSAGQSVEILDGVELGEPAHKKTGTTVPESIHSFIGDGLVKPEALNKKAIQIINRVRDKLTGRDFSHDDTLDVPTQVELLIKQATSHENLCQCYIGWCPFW

For `CO[C@H]1CC[C@@H](N2CC(=O)Nc3ncc(-c4ccc(C(C)(C)O)nc4)nc32)C1` [Example 51, 6-(6-(2-hydroxypropan-2-yl)pyridin-3-yl)-4-((1R,3S)-3-methoxycyclopentyl)-3,4-dihydropyrazino[2,3-b]pyrazin-2(1H)-one], the IC50 is 0.005 to 250 nM.
Consider `CO[C@@H]1CC[C@H](N2CC(=O)Nc3ncc(-c4ccc(C(C)(C)O)nc4)nc32)C1` [Example 52, 6-(6-(2-hydroxypropan-2-yl)pyridin-3-yl)-4-((1S,3R)-3-methoxycyclopentyl)-3,4-dihydropyrazino[2,3-b]pyrazin-2(1H)-one], for which the IC50 was 0.005 to 250 nM.
As for `CO[C@H]1CC[C@H](CN2CC(=O)Nc3ncc(-c4ccc(C(C)(C)O)nc4)nc32)C1` [Example 53, 6-(6-(2-hydroxypropan-2-yl)pyridin-3-yl)-4-(((1S,3S)-3-methoxycyclopentyl)methyl)-3,4-dihydropyrazino[2,3-b]pyrazin-2(1H)-one], the IC50 lay within 0.005 to 250 nM.
With `CO[C@@H]1CC[C@@H](CN2CC(=O)Nc3ncc(-c4ccc(C(C)(C)O)nc4)nc32)C1` [Example 54, 6-(6-(2-hydroxypropan-2-yl)pyridin-3-yl)-4-(((1R,3R)-3-methoxycyclopentyl)methyl)-3,4-dihydropyrazino[2,3-b]pyrazin-2(1H)-one] the figure was 0.005 to 250 nM; with `CO[C@H]1CC[C@H](N2CC(=O)Nc3ncc(-c4ccc(C(C)(C)O)nc4)nc32)C1` [Example 55, 6-(6-(2-hydroxypropan-2-yl)pyridin-3-yl)-4-((1S,3S)-3-methoxycyclopentyl)-3,4-dihydropyrazino[2,3-b]pyrazin-2(1H)-one], 1000 to 10000 nM.
In the case of `CO[C@@H]1CC[C@@H](N2CC(=O)Nc3ncc(-c4ccc(C(C)(C)O)nc4)nc32)C1` [Example 56, 6-(6-(2-hydroxypropan-2-yl)pyridin-3-yl)-4-((1R,3R)-3-methoxycyclopentyl)-3,4-dihydropyrazino[2,3-b]pyrazin-2(1H)-one] it was 0.005 to 250 nM; in that of `CO[C@H]1CC[C@@H](CN2CC(=O)Nc3ncc(-c4ccc(C(C)(C)O)nc4)nc32)C1` [Example 57, 6-(6-(2-hydroxypropan-2-yl)pyridin-3-yl)-4-(((1R,3S)-3-methoxycyclopentyl)methyl)-3,4-dihydropyrazino[2,3-b]pyrazin-2(1H)-one], 0.005 to 250 nM; in that of `CO[C@@H]1CC[C@H](CN2CC(=O)Nc3ncc(-c4ccc(C(C)(C)O)nc4)nc32)C1` [Example 58, 6-(6-(2-hydroxypropan-2-yl)pyridin-3-yl)-4-(((1S,3R)-3-methoxycyclopentyl)methyl)-3,4-dihydropyrazino[2,3-b]pyrazin-2(1H)-one], 0.005 to 250 nM.
With `COCCN1CC(=O)Nc2ncc(-c3ccc(-c4nnc[nH]4)c(F)c3)nc21` [Example 59, 6-(3-fluoro-4-(4H-1,2,4-triazol-3-yl)phenyl)-4-(2-methoxyethyl)-3,4-dihydropyrazino[2,3-b]pyrazin-2(1H)-one] the figure was 0.005 to 250 nM; with `O=C1CN(CCC2CCOCC2)c2nc(-c3ccc(-c4nnc[nH]4)c(F)c3)cnc2N1` [Example 60, 6-(3-fluoro-4-(4H-1,2,4-triazol-3-yl)phenyl)-4-(2-(tetrahydro-2H-pyran-4-yl)ethyl)-3,4-dihydropyrazino[2,3-b]pyrazin-2(1H)-one], 0.005 to 250 nM; with `Cc1cc(-c2nnc[nH]2)ccc1-c1cnc2c(n1)N(CC1CCOCC1)C1(CCCC1)C(=O)N2` [Example 61, 7′-(2-methyl-4-(4H-1,2,4-triazol-3-yl)phenyl)-1′-((tetrahydro-2H-pyran-4-yl)methyl)-1′H-spiro[cyclopentane-1,2′-pyrazino[2,3-b]pyrazin]-3′(4′H)-one], 0.005 to 250 nM.
Regarding `Cc1cc(-c2nnc[nH]2)ccc1-c1cnc2c(n1)N(CC1CCOCC1)C1(CCC1)C(=O)N2` [Example 62, 7′-(2-methyl-4-(4H-1,2,4-triazol-3-yl)phenyl)-1′-((tetrahydro-2H-pyran-4-yl)methyl)-1′H-spiro[cyclobutane-1,2′-pyrazino[2,3-b]pyrazin]-3′(4′H)-one], the concentration for half-maximal inhibition (IC50) fell in the range of 0.005 to 250 nM.
With `CC(C)(O)c1ccc(-c2cnc3c(n2)N(CC2CC2)CC(=O)N3)cn1` [Example 63, 4-(cyclopropylmethyl)-6-(6-(2-hydroxypropan-2-yl)pyridin-3-yl)-3,4-dihydropyrazino[2,3-b]pyrazin-2(1H)-one] the figure was 250 to 500 nM; with `Cc1cc(-c2nnc[nH]2)ccc1-c1cnc2c(n1)NC1(CCCC1)C(=O)N2` [Example 64, 7′-(2-methyl-4-(4H-1,2,4-triazol-3-yl)phenyl)-1′H-spiro[cyclopentane-1,2′-pyrazino[2,3-b]pyrazin]-3′(4′H)-one], 250 to 500 nM; with `Cc1cc(-c2nnc[nH]2)ccc1-c1cnc2c(n1)NC1(CCC1)C(=O)N2` [Example 65, 7′-(2-methyl-4-(4H-1,2,4-triazol-3-yl)phenyl)-1′H-spiro[cyclobutane-1,2′-pyrazino[2,3-b]pyrazin]-3′(4′H)-one], 250 to 500 nM.
For the compound `Cc1cc(-c2nnc[nH]2)ccc1-c1cnc2c(n1)NC1(CC1)C(=O)N2` [Example 66, 7′-(2-methyl-4-(4H-1,2,4-triazol-3-yl)phenyl)-1′H-spiro[cyclopropane-1,2′-pyrazino[2,3-b]pyrazin]-3′(4′H)-one], the IC50 was 0.005 to 250 nM.
On to `O=C1CN(C[C@H]2CCCO2)c2nc(-c3ccc(-c4nnc[nH]4)cc3)cnc2N1` [Example 67, (R)-6-(4-(4H-1,2,4-triazol-3-yl)phenyl)-4-((tetrahydrofuran-2-yl)methyl)-3,4-dihydropyrazino[2,3-b]pyrazin-2(1H)-one], for which the concentration for half-maximal inhibition (IC50) was in the range of 0.005 to 250 nM.
`O=C1CN(C[C@@H]2CCCO2)c2nc(-c3ccc(-c4nnc[nH]4)cc3)cnc2N1` [Example 68, (S)-6-(4-(4H-1,2,4-triazol-3-yl)phenyl)-4-((tetrahydrofuran-2-yl)methyl)-3,4-dihydropyrazino[2,3-b]pyrazin-2(1H)-one]: the IC50 was in the range of 0.005 to 250 nM.
In the case of `O=C1CN(CCC2CCOCC2)c2nc(-c3ccc4[nH]ncc4c3)cnc2N1` [Example 69, 6-(1H-indazol-5-yl)-4-(2-(tetrahydro-2H-pyran-4-yl)ethyl)-3,4-dihydropyrazino[2,3-b]pyrazin-2(1H)-one] it was 250 to 500 nM; in that of `NC(=O)c1ccc(-c2cnc3c(n2)N(CCC2CCOCC2)CC(=O)N3)cc1` [Example 70, 4-(6-oxo-8-(2-(tetrahydro-2H-pyran-4-yl)ethyl)-5,6,7,8-tetrahydropyrazino[2,3-b]pyrazin-2-yl)benzamide], 1000 to 10000 nM; in that of `COCCN1c2nc(-c3ccc(-c4nnc[nH]4)cc3C)cnc2NC(=O)C1(C)C` [Example 71, 4-(2-methoxyethyl)-3,3-dimethyl-6-(2-methyl-4-(4H-1,2,4-triazol-3-yl)phenyl)-3,4-dihydropyrazino[2,3-b]pyrazin-2(1H)-one], 0.005 to 250 nM.
Take `CCN1c2nc(-c3ccc(-c4nnc[nH]4)cc3C)cnc2NC(=O)C1(C)C` [Example 72, 4-ethyl-3,3-dimethyl-6-(2-methyl-4-(4H-1,2,4-triazol-3-yl)phenyl)-3,4-dihydropyrazino[2,3-b]pyrazin-2(1H)-one]: the IC50 lay within 0.005 to 250 nM.
With `Cc1cc(-c2nnc[nH]2)ccc1-c1cnc2c(n1)NCC(=O)N2` [Example 73, 6-(2-methyl-4-(4H-1,2,4-triazol-3-yl)phenyl)-3,4-dihydropyrazino[2,3-b]pyrazin-2(1H)-one] the figure was 250 to 500 nM; with `Cc1nc(-c2nnc[nH]2)ccc1-c1cnc2c(n1)N(CC1CCOCC1)C(C)(C)C(=O)N2` [Example 74, 3,3-dimethyl-6-(2-methyl-6-(4H-1,2,4-triazol-3-yl)pyridin-3-yl)-4-((tetrahydro-2H-pyran-4-yl)methyl)-3,4-dihydropyrazino[2,3-b]pyrazin-2(1H)-one], 0.005 to 250 nM.
In the case of `C[C@@H](O)c1ccc(-c2cnc3c(n2)N(CCC2CCOCC2)CC(=O)N3)cn1` [Example 75, (R)-6-(6-(1-hydroxyethyl)pyridin-3-yl)-4-(2-(tetrahydro-2H-pyran-4-yl)ethyl)-3,4-dihydropyrazino[2,3-b]pyrazin-2(1H)-one] it was 0.005 to 250 nM.
As for `Cc1cc(-c2nnc[nH]2)ccc1-c1cnc2c(n1)N(CC1CCOCC1)C(C)(C)C(=O)N2` [Example 76, 3,3-dimethyl-6-(2-methyl-4-(4H-1,2,4-triazol-3-yl)phenyl)-4-((tetrahydro-2H-pyran-4-yl)methyl)-3,4-dihydropyrazino[2,3-b]pyrazin-2(1H)-one], the half-inhibitory concentration (IC50) lay within 0.005 to 250 nM.
With `CO[C@H]1CC[C@H](N2CC(=O)Nc3ncc(-c4cnc(C(C)(C)O)cc4C)nc32)CC1` [Example 77, 6-(6-(2-hydroxypropan-2-yl)-4-methylpyridin-3-yl)-4-(trans-4-methoxycyclohexyl)-3,4-dihydropyrazino[2,3-b]pyrazin-2(1H)-one] the figure was 0.005 to 250 nM.
Consider `Cc1cc(C(C)(C)O)ncc1-c1cnc2c(n1)N(CC1CCOCC1)CC(=O)N2` [Example 78, 6-(6-(2-hydroxypropan-2-yl)-4-methylpyridin-3-yl)-4-((tetrahydro-2H-pyran-4-yl)methyl)-3,4-dihydropyrazino[2,3-b]pyrazin-2(1H)-one], for which the IC50 lay within 0.005 to 250 nM.
Regarding `Cc1cc(-c2nnc[nH]2)ccc1-c1cnc2c(n1)NC(C)(C)C(=O)N2` [Example 79, 3,3-dimethyl-6-(2-methyl-4-(4H-1,2,4-triazol-3-yl)phenyl)-3,4-dihydropyrazino[2,3-b]pyrazin-2(1H)-one], the IC50 lay in the range of 250 to 500 nM.
`Cc1nc(-c2nnc[nH]2)ccc1-c1cnc2c(n1)N(CCC1CCOCC1)C(C)(C)C(=O)N2` [Example 80, 3,3-dimethyl-6-(2-methyl-6-(4H-1,2,4-triazol-3-yl)pyridin-3-yl)-4-(2-(tetrahydro-2H-pyran-4-yl)ethyl)-3,4-dihydropyrazino[2,3-b]pyrazin-2(1H)-one]: the half-inhibitory concentration (IC50) fell in the range of 0.005 to 250 nM.
